Our source for the IC50 and Kd values is US20240025906A1 (NEURON23, INC., priority 2022, published 2024).

Test [1] has as its system JAK1/TYK2 pSTAT5 (Tyr694/699) in THP-1 cell line. Kind of test: IFNa-stimulated JAK1/TYK2 pSTAT5 (Tyr694/699) inhibition cellular assay, AlphaLISA. Type of test: cell-based. To be noted: Homo sapiens; THP-1 cells, IFNa-stimulated, AlphaLISA (Assay B); read-out: Cellular_THP1_IFNa-pSTATS_TYK2. In a few lines:
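THP-1, 2e4 cells/well, HBSS; cpd 1 h 37 °C (10000–0.04 nM final, 6-fold, 8 pt); IFNa 100 ng/mL added, 30 min; lyse, freeze −80 °C; pSTAT5 AlphaLISA, 615 nm; 4PL IC50, bottom fixed 0, slope −1.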
(In general: In Alpha technology, singlet oxygen from a donor bead excites a nearby acceptor bead.)

Test [2] has as its target T1, TYK2 JH2 (Homo sapiens, UniProt P29597).
T1 construct: purchased DiscoverX (KINOMEscan KdELECT service); host or cells: E. coli BL21-derived (T7 phage display) or HEK-293
The test can be described thus: TYK2 JH2 binding assay (KINOMEscan KdELECT competitive binding). The conditions noted are these: TYK2 JH2 domain, KINOMEscan KdELECT (Assay A); read-out: Biochemical TYK2_DiscoverX_JH2_BND_Kd. In a few lines:
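JH2-domain fragment, expressed as T7 phage tag in BL21-derived E. coli or DNA-tagged from HEK-293, competed with test compound against bead-immobilized biotinylated ligand in binding buffer (0.9% DMSO). 1 h shaking at room temperature; bound kinase eluted with 0.5 μM free ligand and quantified by qPCR. Kd from 11-point 3-fold dilutions.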

T1 sequence (P29597 589-875 limits assumed): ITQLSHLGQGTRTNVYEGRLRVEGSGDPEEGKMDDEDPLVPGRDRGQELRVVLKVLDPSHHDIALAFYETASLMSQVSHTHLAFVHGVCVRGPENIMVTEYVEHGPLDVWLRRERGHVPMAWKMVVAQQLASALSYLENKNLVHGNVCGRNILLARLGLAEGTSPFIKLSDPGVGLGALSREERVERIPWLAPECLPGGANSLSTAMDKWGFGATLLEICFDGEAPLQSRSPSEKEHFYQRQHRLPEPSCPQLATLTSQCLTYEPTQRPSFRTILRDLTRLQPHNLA

In the case of `CNc1ncc(C#Cc2ccc(OC(F)F)cn2)c2cc(NC(=O)C3CC3)ncc12` [Example 645, N-(5-((5-(difluoromethoxy)pyridin-2-yl)ethynyl)-8-(methylamino)-2,7-naphthyridin-3-yl)cyclopropanecarboxamide], in test [1], the IC50 was at most 500 nM. The Kd in test [2] is at most 100 nM.

In the case of `CNc1ncc(C#Cc2ccncc2C(F)(F)F)c2cc(NC(=O)C3CC3)ncc12` [Example 646, N-(8-(methylamino)-5-((3-(trifluoromethyl)pyridin-4-yl)ethynyl)-2,7-naphthyridin-3-yl)cyclopropanecarboxamide], in test [1], the IC50 is at most 500 nM. For the same compound, in test [2], the Kd was at most 100 nM.

With `CNc1ncc(C#Cc2ccc3nc(C)n(C)c3c2)c2cc(NC(=O)C3CC3)ncc12` [Example 647, N-(5-((1,2-dimethyl-1H-benzo[d]imidazol-6-yl)ethynyl)-8-(methylamino)-2,7-naphthyridin-3-yl)cyclopropanecarboxamide], the IC50 in test [1] was at most 500 nM. Besides, in test [2], the Kd was at most 100 nM.

In the case of `CNc1ncc(C#Cc2ccc(COC)cc2)c2cc(NC(=O)C3CC3)ncc12` [Example 648, N-(5-((4-(methoxymethyl)phenyl)ethynyl)-8-(methylamino)-2,7-naphthyridin-3-yl)cyclopropanecarboxamide], the IC50 in test [1] is at most 500 nM. In addition, the Kd in test [2] was at most 100 nM.

As for `CNc1ncc(C#Cc2ccc3c(cnn3C)c2)c2cc(NC(=O)C3CC3)ncc12` [Example 649, N-(5-((1-methyl-1H-indazol-5-yl)ethynyl)-8-(methylamino)-2,7-naphthyridin-3-yl)cyclopropanecarboxamide], the IC50 in test [1] is at most 500 nM. In addition, the Kd in test [2] was at most 100 nM.

`CNc1ncc(C#Cc2ccc(SC)cc2)c2cc(NC(=O)C3CC3)ncc12` [Example 650, N-(8-(methylamino)-5-((4-(methylthio)phenyl)ethynyl)-2,7-naphthyridin-3-yl)cyclopropanecarboxamide]: the IC50 in test [1] is at most 500 nM. Besides, the Kd in test [2] is at most 100 nM.

With `CNc1ccc(C#Cc2cnc(NC)c3cnc(NC(=O)C4CC4)cc23)cc1` [Example 651, N-(8-(methylamino)-5-((4-(methylamino)phenyl)ethynyl)-2,7-naphthyridin-3-yl)cyclopropanecarboxamide], the IC50 in test [1] was at most 500 nM. Besides, the Kd in test [2] was at most 100 nM.

With `CNc1ncc(C#Cc2ccccc2C(C)(C)O)c2cc(NC(=O)C3CC3)ncc12` [Example 652, N-(5-((2-(2-hydroxypropan-2-yl)phenyl)ethynyl)-8-(methylamino)-2,7-naphthyridin-3-yl)cyclopropanecarboxamide], the IC50 in test [1] was at most 500 nM. Further, in test [2], the Kd was at most 100 nM.

In the case of `CNc1ncc(C#Cc2cnn(C)n2)c2cc(NC(=O)C3CC3)ncc12` [Example 653, N-(5-((2-methyl-2H-1,2,3-triazol-4-yl)ethynyl)-8-(methylamino)-2,7-naphthyridin-3-yl)cyclopropanecarboxamide], in test [1], the IC50 was at most 500 nM. In test [2], the Kd was at most 100 nM.

For the compound `CNc1ncc(C#Cc2ccc(OC(F)F)cc2)c2cc(NC(=O)C3CC3)ncc12` [Example 654, N-(5-((4-(difluoromethoxy)phenyl)ethynyl)-8-(methylamino)-2,7-naphthyridin-3-yl)cyclopropanecarboxamide], in test [1], the IC50 is at most 500 nM. Besides, in test [2], the Kd is at most 100 nM.

Turning to `CNc1ncc(C#Cc2ccc(C(C)(F)F)cc2)c2cc(NC(=O)C3CC3)ncc12` [Example 655], the IC50 in test [1] was at most 500 nM. For the same compound, the Kd in test [2] was at most 100 nM.

On to `CNc1ncc(C#Cc2ccc(OCF)cc2)c2cc(NC(=O)C3CC3)ncc12` [Example 656, N-(5-((4-(fluoromethoxy)phenyl)ethynyl)-8-(methylamino)-2,7-naphthyridin-3-yl)cyclopropanecarboxamide], for which the IC50 in test [1] was at most 500 nM. In test [2], the Kd is at most 100 nM.

Take `CNc1ncc(C#Cc2ccc(C(F)(F)F)cn2)c2cc(NC(=O)C3CC3)ncc12` [Example 657, N-(8-(methylamino)-5-((5-(trifluoromethyl)pyridin-2-yl)ethynyl)-2,7-naphthyridin-3-yl)cyclopropanecarboxamide]: the IC50 in test [1] was at most 500 nM. Moreover, the Kd in test [2] is at most 100 nM.

Consider `CNc1ncc(C#Cc2ccc(C(F)F)cn2)c2cc(NC(=O)C3CC3)ncc12` [Example 658], for which the IC50 in test [1] is at most 500 nM. Moreover, in test [2], the Kd was at most 100 nM.

As to `CNc1ncc(C#Cc2ccc(C)cn2)c2cc(NC(=O)C3CC3)ncc12` [Example 659, N-(8-(methylamino)-5-((5-methylpyridin-2-yl)ethynyl)-2,7-naphthyridin-3-yl)cyclopropanecarboxamide], the IC50 in test [1] is at most 500 nM. In test [2], the Kd was at most 100 nM.

`CNc1ncc(C#Cc2ccc(CC(F)(F)F)cn2)c2cc(NC(=O)C3CC3)ncc12` [Example 660, N-(8-(methylamino)-5-((5-(2,2,2-trifluoroethyl)pyridin-2-yl)ethynyl)-2,7-naphthyridin-3-yl)cyclopropanecarboxamide]: in test [1], the IC50 is at most 500 nM. Also, the Kd in test [2] was at most 100 nM.

For the compound `CNc1ncc(C#Cc2ccc(C#N)cn2)c2cc(NC(=O)C3CC3)ncc12` [Example 661, N-(5-((5-cyanopyridin-2-yl)ethynyl)-8-(methylamino)-2,7-naphthyridin-3-yl)cyclopropanecarboxamide], the IC50 in test [1] is at most 500 nM. Also, in test [2], the Kd is at most 100 nM.

Consider `CNc1ncc(C#Cc2ccc(C(C)(C)O)cn2)c2cc(NC(=O)C3CC3)ncc12` [Example 662, N-(5-((5-(2-hydroxypropan-2-yl)pyridin-2-yl)ethynyl)-8-(methylamino)-2,7-naphthyridin-3-yl)cyclopropanecarboxamide], for which the IC50 in test [1] was at most 500 nM. In addition, the Kd in test [2] is at most 100 nM.

Consider `CNc1ncc(C#Cc2cc(C)c(OC)cn2)c2cc(NC(=O)C3CC3)ncc12` [Example 663, N-(5-((5-methoxy-4-methylpyridin-2-yl)ethynyl)-8-(methylamino)-2,7-naphthyridin-3-yl)cyclopropanecarboxamide], for which the IC50 in test [1] was at most 500 nM. Besides, in test [2], the Kd was at most 100 nM.

In the case of `CNc1ncc(C#Cc2ncc(OC)cc2C)c2cc(NC(=O)C3CC3)ncc12` [Example 664, N-(5-((5-methoxy-3-methylpyridin-2-yl)ethynyl)-8-(methylamino)-2,7-naphthyridin-3-yl)cyclopropanecarboxamide], the IC50 in test [1] is at most 500 nM. The Kd in test [2] was at most 100 nM.

As to `CNc1ncc(C#Cc2ncc(OC)cc2F)c2cc(NC(=O)C3CC3)ncc12` [Example 665, N-(5-((3-fluoro-5-methoxypyridin-2-yl)ethynyl)-8-(methylamino)-2,7-naphthyridin-3-yl)cyclopropanecarboxamide], in test [1], the IC50 was at most 500 nM. Further, the Kd in test [2] was at most 100 nM.

For the compound `CNc1ncc(C#Cc2ccc3occc3n2)c2cc(NC(=O)C3CC3)ncc12` [Example 666, N-(5-(furo[3,2-b]pyridin-5-ylethynyl)-8-(methylamino)-2,7-naphthyridin-3-yl)cyclopropanecarboxamide], the IC50 in test [1] was at most 500 nM. For the same compound, in test [2], the Kd is at most 100 nM.

For `CNc1ncc(C#Cc2cc3ccoc3cn2)c2cc(NC(=O)C3CC3)ncc12` [Example 667, N-(5-(furo[2,3-c]pyridin-5-ylethynyl)-8-(methylamino)-2,7-naphthyridin-3-yl)cyclopropanecarboxamide], the IC50 in test [1] was at most 500 nM. Moreover, the Kd in test [2] is at most 100 nM.

For `CNc1ncc(C#Cc2ccc3nc(CO)sc3c2)c2cc(NC(=O)C3CC3)ncc12` [Example 668, N-(5-((2-(hydroxymethyl)benzo[d]thiazol-6-yl)ethynyl)-8-(methylamino)-2,7-naphthyridin-3-yl)cyclopropanecarboxamide], the IC50 in test [1] is at most 500 nM. The Kd in test [2] is at most 100 nM.

On to `CNc1ncc(C#Cc2ccncc2CO)c2cc(NC(=O)C3CC3)ncc12` [Example 669, N-(5-((3-(hydroxymethyl)pyridin-4-yl)ethynyl)-8-(methylamino)-2,7-naphthyridin-3-yl)cyclopropanecarboxamide], for which, in test [1], the IC50 was at most 500 nM. The Kd in test [2] was at most 100 nM.

Turning to `CNc1ncc(C#Cc2ccc(NC(C)=O)cc2)c2cc(NC(=O)C3CC3)ncc12` [Example 670, N-(5-((4-acetamidophenyl)ethynyl)-8-(methylamino)-2,7-naphthyridin-3-yl)cyclopropanecarboxamide], the IC50 in test [1] is at most 500 nM. Moreover, the Kd in test [2] is at most 100 nM.

As for `CNc1ncc(C#Cc2ccc(-n3ccccc3=O)cc2)c2cc(NC(=O)C3CC3)ncc12` [Example 671, N-(8-(methylamino)-5-((4-(2-oxopyridin-1(2H)-yl)phenyl)ethynyl)-2,7-naphthyridin-3-yl)cyclopropanecarboxamide], the IC50 in test [1] was at most 500 nM. Also, the Kd in test [2] was at most 100 nM.

As to `CNC(=O)c1ccc(C#Cc2cnc(NC)c3cnc(NC(=O)C4CC4)cc23)cc1` [Example 672, 4-((6-(cyclopropanecarboxamido)-1-(methylamino)-2,7-naphthyridin-4-yl)ethynyl)-N-methylbenzamide], in test [1], the IC50 is at most 500 nM. In test [2], the Kd was at most 100 nM.

`CNc1ncc(C#Cc2ccc(S(=O)(=O)NC)cc2)c2cc(NC(=O)C3CC3)ncc12` [Example 673, N-(8-(methylamino)-5-((4-(N-methylsulfamoyl)phenyl)ethynyl)-2,7-naphthyridin-3-yl)cyclopropanecarboxamide]: the IC50 in test [1] is at most 500 nM. In test [2], the Kd was at most 100 nM.
